# What was measured:
# Assay type in all cases: in vivo
# [1] = tested on: redroot pigweed (Amaranthus retroflexus, AMARE); assay: Pre-emerge test, greenhouse herbicide activity screening; details: for Pre-emerge herbicidal activity, phytotoxicity rating AMARE: rating scale 0-100, 14 days after application; for phytotoxicity rating AMARE: pre-emerge, 14 days after application, rating scale 0-100
# Source text: (§1) A standard greenhouse herbicide activity screening system was used to evaluate the herbicidal efficacy and crop safety of these test compounds. Seven broadleaf weed species including redroot pigweed (Amaranthus retroflexus, AMARE, velvetleaf (Abutilon theophrasti, ABUTH), sicklepod (Cassia obtusifolia, CASOB), ivyleaf morningglory (Ipomoea hederacea, IPOHE), lambsquarters (Chenopodium album, CHEAL), common ragweed (Ambrosia artemisizfolia L., AMBEL), and cocklebur (Xanthium strumarium, XANST) were used as test species. Four grass weed species including green foxtail (Setaria viridis, SETVI), barnyardgrass (Echinochloa crus-galli, ECHCG), johnsongrass (Sorghum halepense, SORHA), and large crabgrass (Digitaria sanguinalis, DIGSA) were also used. In addition, three crop species, field corn (Zea mays L., var. Dekalb 535, CORN), soybean (Glycine max L., var. Pella 86, SOY), and is upland rice (Oryza sp., var. Tebonnet, RICE) were included.
# (§2) All plants were grown in 10 cm square plastic pots which were filled with a sandy loam soil mix. For pre-emerge tests, seeds were planted one day prior to application of the test compounds. For post-emerge tests, seeds were planted 8-21 days prior to the test to allow emergence and good foliage development prior to application of the test substances. At the time of the post-emerge application, plants of all species were usually at the 2-3 leaf stage of development.
# All test compounds Were dissolved in acetone and applied to the test units in a volume of 187 l /ha. […] Plants were arranged on a shelf so that the top of the canopy (post-emerge) or top of the soil surface (pre-emerge) was 40-45 cm below the nozzle. Pressurized air was used to force the test solution through the nozzle as it was mechanically advanced (via electrically driven chain drive) over the top of all test plants/pots. This application simulates a typical commercial field herbicide application.
# (§3) In the post-emerge test, a commercial non-ionic surfactant was also included (0.25% v/v) to enhance wetting of the leaf surfaces of target plants. Immediately after application, test units of the pre-emerge applications were watered at the soil surface to incorporate the test materials. Subsequently, these test units were bottom-watered. Post-emerge test units were always bottom-watered.
# (§4) At 14 days after application of the test materials, phytotoxicity ratings were recorded. A rating scale of 0-100 was used as previously described in Research Methods in Weed Science, 2nd edition, B. Truelove, Ed., Southern Weed Science Society, Auburn University, Auburn, Ala. 1977. Briefly, “0” corresponds to no damage and “100” corresponds to complete death of all plants in the test unit. This scale was used both to determine efficacy against weed species and damage to crop species. Herbicide activity data for various compounds of this invention, which are shown by compound No. in Tables 1-8, are shown in Tables 11 and 12.
# [2] = tested on: barnyardgrass (Echinochloa crus-galli, ECHCG); assay: as above; details: for Pre-emerge herbicidal activity, phytotoxicity rating ECHCG: rating scale 0-100, 14 days after application; for phytotoxicity rating ECHCG: pre-emerge, 14 days after application, rating scale 0-100
# Source text: as §1, §2
# (§5) All test compounds Were dissolved in acetone and applied to the test units in a volume of 187 l /ha. Test materials were applied at rates ranging from 15 g ai/ha to 1000 g ai/ha using a track sprayer equipped with a TJ8001E even flow flat fan spray nozzle. Plants were arranged on a shelf so that the top of the canopy (post-emerge) or top of the soil surface (pre-emerge) was 40-45 cm below the nozzle. Pressurized air was used to force the test solution through the nozzle as it was mechanically advanced (via electrically driven chain drive) over the top of all test plants/pots. This application simulates a typical commercial field herbicide application.
# as §3, §4
# [3] = tested on: green foxtail (Setaria viridis, SETVI); assay: as above; details: for Pre-emerge herbicidal activity, phytotoxicity rating SETVI: rating scale 0-100, 14 days after application; for phytotoxicity rating SETVI: pre-emerge, 14 days after application, rating scale 0-100
# Source text: as §1, §2, §5, §3, §4
# [4] = tested on: ivyleaf morningglory (Ipomoea hederacea, IPOHE); assay: as above; details: for Pre-emerge herbicidal activity, phytotoxicity rating IPOHE: rating scale 0-100, 14 days after application; for phytotoxicity rating IPOHE: pre-emerge, 14 days after application, rating scale 0-100
# Source text: as §1, §2, §5, §3, §4
# [5] = tested on: lambsquarters (Chenopodium album, CHEAL); assay: as above; details: for Pre-emerge herbicidal activity, phytotoxicity rating CHEAL: rating scale 0-100, 14 days after application; for phytotoxicity rating CHEAL: pre-emerge, 14 days after application, rating scale 0-100
# Source text: as §1, §2, §5, §3, §4
# [6] = tested on: large crabgrass (Digitaria sanguinalis, DIGSA); assay: as above; details: for Pre-emerge herbicidal activity, phytotoxicity rating DIGSA: rating scale 0-100, 14 days after application; for phytotoxicity rating DIGSA: pre-emerge, 14 days after application, rating scale 0-100
# Source text: as §1, §2, §5, §3, §4
# [7] = tested on: sicklepod (Cassia obtusifolia, CASOB); assay: as above; details: for Pre-emerge herbicidal activity, phytotoxicity rating CASOB: rating scale 0-100, 14 days after application; for phytotoxicity rating CASOB: pre-emerge, 14 days after application, rating scale 0-100
# Source text: as §1, §2, §5, §3, §4
# [8] = tested on: velvetleaf (Abutilon theophrasti, ABUTH); assay: as above; details: for Pre-emerge herbicidal activity, phytotoxicity rating ABUTH: rating scale 0-100, 14 days after application; for phytotoxicity rating ABUTH: pre-emerge, 14 days after application, rating scale 0-100
# Source text: as §1, §2, §5, §3, §4
# [9] = tested on: barnyardgrass (Echinochloa crus-galli, ECHCG); assay: Post-emerge test, greenhouse herbicide activity screening; details: 14 days after application; for Post-emerge Herbicidal Activity, phytotoxicity rating ECHCG: rating scale 0-100 (0 no damage, 100 complete death); for Post-emerge Herbicidal Activity ECHCG (phytotoxicity rating): rating scale 0-100
# Source text: as §1, §2, §5, §3, §4
# [10] = tested on: green foxtail (Setaria viridis, SETVI); assay: as above; details: 14 days after application; for Post-emerge Herbicidal Activity, phytotoxicity rating SETVI: rating scale 0-100 (0 no damage, 100 complete death); for Post-emerge Herbicidal Activity SETVI (phytotoxicity rating): rating scale 0-100
# Source text: as §1, §2, §5, §3, §4
# [11] = tested on: ivyleaf morningglory (Ipomoea hederacea, IPOHE); assay: as above; details: 14 days after application; for Post-emerge Herbicidal Activity, phytotoxicity rating IPOHE: rating scale 0-100 (0 no damage, 100 complete death); for Post-emerge Herbicidal Activity IPOHE (phytotoxicity rating): rating scale 0-100
# Source text: as §1, §2, §5, §3, §4
# [12] = tested on: lambsquarters (Chenopodium album, CHEAL); assay: as above; details: 14 days after application; for Post-emerge Herbicidal Activity, phytotoxicity rating CHEAL: rating scale 0-100 (0 no damage, 100 complete death); for Post-emerge Herbicidal Activity CHEAL (phytotoxicity rating): rating scale 0-100
# Source text: as §1, §2, §5, §3, §4
# [13] = tested on: large crabgrass (Digitaria sanguinalis, DIGSA); assay: as above; details: 14 days after application; for Post-emerge Herbicidal Activity, phytotoxicity rating DIGSA: rating scale 0-100 (0 no damage, 100 complete death); for Post-emerge Herbicidal Activity DIGSA (phytotoxicity rating): rating scale 0-100
# Source text: as §1, §2, §5, §3, §4
# [14] = tested on: redroot pigweed (Amaranthus retroflexus, AMARE); assay: as above; details: 14 days after application
# Source text: as §1, §2, §5, §3, §4
# [15] = tested on: sicklepod (Cassia obtusifolia, CASOB); assay: as above; details: 14 days after application; for Post-emerge Herbicidal Activity, phytotoxicity rating CASOB: rating scale 0-100 (0 no damage, 100 complete death); for Post-emerge Herbicidal Activity CASOB (phytotoxicity rating): rating scale 0-100
# Source text: as §1, §2, §5, §3, §4
# [16] = tested on: velvetleaf (Abutilon theophrasti, ABUTH); assay: as above; details: 14 days after application; for Post-emerge Herbicidal Activity, phytotoxicity rating ABUTH: rating scale 0-100 (0 no damage, 100 complete death); for Post-emerge Herbicidal Activity ABUTH (phytotoxicity rating): rating scale 0-100
# Source text: as §1, §2, §5, §3, §4
smiles,measurement,setting,value
"CCOC(=O)C(Cl)Cc1c(OC)c(Cl)cc(F)c1-n1c(=O)cc(C(F)(F)F)n(C)c1=O (single isomer, unassigned) [Compound 14-4, 3-{4-chloro-2-[2-chloro-2-(ethoxycarbonyl)ethyl]-6-fluoro-3-methoxyphenyl}-1-methyl-6-trifluoromethyl-2,4(1H, 3H)-pyrimidinedione]","Pre-emerge herbicidal activity, phytotoxicity rating AMARE",[1]; 63 g ai/ha,90
same,"Pre-emerge herbicidal activity, phytotoxicity rating AMARE",[1]; 250 g ai/ha,100
same,"Pre-emerge herbicidal activity, phytotoxicity rating ECHCG",[2]; 63 g ai/ha,0
same,"Pre-emerge herbicidal activity, phytotoxicity rating ECHCG",[2]; 250 g ai/ha,0
same,"Pre-emerge herbicidal activity, phytotoxicity rating SETVI",[3]; 63 g ai/ha,10
same,"Pre-emerge herbicidal activity, phytotoxicity rating SETVI",[3]; 250 g ai/ha,40
same,"Pre-emerge herbicidal activity, phytotoxicity rating IPOHE",[4]; 63 g ai/ha,0
same,"Pre-emerge herbicidal activity, phytotoxicity rating IPOHE",[4]; 250 g ai/ha,70
same,"Pre-emerge herbicidal activity, phytotoxicity rating CHEAL",[5]; 63 g ai/ha,60
same,"Pre-emerge herbicidal activity, phytotoxicity rating CHEAL",[5]; 250 g ai/ha,100
same,"Pre-emerge herbicidal activity, phytotoxicity rating DIGSA",[6]; 63 g ai/ha,20
same,"Pre-emerge herbicidal activity, phytotoxicity rating DIGSA",[6]; 250 g ai/ha,95
same,"Pre-emerge herbicidal activity, phytotoxicity rating CASOB",[7]; 63 g ai/ha,20
same,"Pre-emerge herbicidal activity, phytotoxicity rating CASOB",[7]; 250 g ai/ha,20
same,"Pre-emerge herbicidal activity, phytotoxicity rating ABUTH",[8]; 63 g ai/ha,50
same,"Pre-emerge herbicidal activity, phytotoxicity rating ABUTH",[8]; 250 g ai/ha,80
same,"Post-emerge Herbicidal Activity, phytotoxicity rating ECHCG",[9]; Rate 63 g ai/ha,85
same,"Post-emerge Herbicidal Activity, phytotoxicity rating ECHCG",[9]; Rate 250 g ai/ha,99
same,"Post-emerge Herbicidal Activity, phytotoxicity rating SETVI",[10]; Rate 63 g ai/ha,30
same,"Post-emerge Herbicidal Activity, phytotoxicity rating SETVI",[10]; Rate 250 g ai/ha,65
same,"Post-emerge Herbicidal Activity, phytotoxicity rating IPOHE",[11]; Rate 63 g ai/ha,50
same,"Post-emerge Herbicidal Activity, phytotoxicity rating IPOHE",[11]; Rate 250 g ai/ha,60
same,"Post-emerge Herbicidal Activity, phytotoxicity rating CHEAL",[12]; Rate 63 g ai/ha,100
same,"Post-emerge Herbicidal Activity, phytotoxicity rating CHEAL",[12]; Rate 250 g ai/ha,100
same,"Post-emerge Herbicidal Activity, phytotoxicity rating DIGSA",[13]; Rate 63 g ai/ha,75
same,"Post-emerge Herbicidal Activity, phytotoxicity rating DIGSA",[13]; Rate 250 g ai/ha,95
same,"Post-emerge Herbicidal Activity, phytotoxicity rating AMARE","[14]; Rate 63 g ai/ha, rating scale 0-100 (0 no damage, 100 complete death)",100
same,"Post-emerge Herbicidal Activity, phytotoxicity rating AMARE","[14]; Rate 250 g ai/ha, rating scale 0-100 (0 no damage, 100 complete death)",100
same,"Post-emerge Herbicidal Activity, phytotoxicity rating CASOB",[15]; Rate 63 g ai/ha,50
same,"Post-emerge Herbicidal Activity, phytotoxicity rating CASOB",[15]; Rate 250 g ai/ha,100
same,"Post-emerge Herbicidal Activity, phytotoxicity rating ABUTH",[16]; Rate 63 g ai/ha,80
same,"Post-emerge Herbicidal Activity, phytotoxicity rating ABUTH",[16]; Rate 250 g ai/ha,100
"COc1c(Cl)cc(F)c(-n2c(=O)cc(C(F)(F)F)n(C)c2=O)c1NN [Compound 15-1, 3-[4-chloro-2-diazanyl-6-fluoro-3-methoxyphenyl]-1-methyl-6-trifluoromethyl-2,4(1H, 3H)-pyrimidinedione]",phytotoxicity rating AMARE,[1]; 63 g ai/ha,100
same,phytotoxicity rating AMARE,[1]; 250 g ai/ha,100
same,phytotoxicity rating ECHCG,[2]; 63 g ai/ha,91
same,phytotoxicity rating ECHCG,[2]; 250 g ai/ha,100
same,phytotoxicity rating SETVI,[3]; 63 g ai/ha,100
same,phytotoxicity rating SETVI,[3]; 250 g ai/ha,100
same,phytotoxicity rating IPOHE,[4]; 63 g ai/ha,100
same,phytotoxicity rating IPOHE,[4]; 250 g ai/ha,100
same,phytotoxicity rating CHEAL,[5]; 63 g ai/ha,100
same,phytotoxicity rating CHEAL,[5]; 250 g ai/ha,100
same,phytotoxicity rating DIGSA,[6]; 63 g ai/ha,100
same,phytotoxicity rating DIGSA,[6]; 250 g ai/ha,100
same,phytotoxicity rating CASOB,[7]; 63 g ai/ha,100
same,phytotoxicity rating CASOB,[7]; 250 g ai/ha,100
same,phytotoxicity rating ABUTH,[8]; 63 g ai/ha,100
same,phytotoxicity rating ABUTH,[8]; 250 g ai/ha,100
same,Post-emerge Herbicidal Activity ECHCG (phytotoxicity rating),[9]; 63 g ai/ha,80
same,Post-emerge Herbicidal Activity ECHCG (phytotoxicity rating),[9]; 250 g ai/ha,99
same,Post-emerge Herbicidal Activity SETVI (phytotoxicity rating),[10]; 63 g ai/ha,80
same,Post-emerge Herbicidal Activity SETVI (phytotoxicity rating),[10]; 250 g ai/ha,100
same,Post-emerge Herbicidal Activity IPOHE (phytotoxicity rating),[11]; 63 g ai/ha,100
same,Post-emerge Herbicidal Activity IPOHE (phytotoxicity rating),[11]; 250 g ai/ha,100
same,Post-emerge Herbicidal Activity CHEAL (phytotoxicity rating),[12]; 63 g ai/ha,100
same,Post-emerge Herbicidal Activity CHEAL (phytotoxicity rating),[12]; 250 g ai/ha,100
same,Post-emerge Herbicidal Activity DIGSA (phytotoxicity rating),[13]; 63 g ai/ha,90
same,Post-emerge Herbicidal Activity DIGSA (phytotoxicity rating),[13]; 250 g ai/ha,100
same,Post-emerge Herbicidal Activity AMARE (phytotoxicity rating),"[14]; 63 g ai/ha, rating scale 0-100 (0 no damage, 100 complete death)",100
same,Post-emerge Herbicidal Activity AMARE (phytotoxicity rating),"[14]; 250 g ai/ha, rating scale 0-100",100
same,Post-emerge Herbicidal Activity CASOB (phytotoxicity rating),[15]; 63 g ai/ha,100
same,Post-emerge Herbicidal Activity CASOB (phytotoxicity rating),[15]; 250 g ai/ha,100
same,Post-emerge Herbicidal Activity ABUTH (phytotoxicity rating),[16]; 63 g ai/ha,100
same,Post-emerge Herbicidal Activity ABUTH (phytotoxicity rating),[16]; 250 g ai/ha,100
